In experiment [1] the test system is LPS-induced TNFα in monocytes. Kind of experiment: Monocytes assay: LPS-triggered TNFα (ELISA). The class given is cell-based. Particulars: Homo sapiens, Monocyte, LPS 200 ng/mL, supernatant after 4 h. Here is the method:
(§1) SIK inhibition inhibits TNFα and increases IL-10 release in LPS triggered monocyte-derived macrophages (MdM) and dendritic cells (MdDCs) (Clark et al. 2012; Sundberg et al. 2014; Ozanne et al. 2015). This assay evaluates illustrative compounds of the invention for their inhibition of LPS-induced TNFα and LPS triggered IL-10 secretion in monocytes.
(§2) PBMCs are isolated from human blood samples (buffycoats). The buffy coat is aseptically transferred into a 50 mL Falcon tube, and diluted ½ in PBS. Falcon tubes are filled with 20 mL Lymphoprep™, on top of which 25 mL of the buffy coat is carefully added, tubes are centrifuged for 35 min at 400 g in temperature controlled centrifuge, without brake, at 25° C. PBMCs are aspirated from the white interface layer between sample and Lymphoprep™. PBMCs are washed five times in PBS. Cells are resuspended in RPMI 1640 complete medium supplemented with 10% FBS, 1% P/S, and cell density is determined using a hematologic analyzer (Sysmex XS-500i).
PBMCs are centrifuged at 300×g for 10 min and resuspended at a density of 1.0*10^7 cells/80 μL Miltenyi buffer (PBS, pH 7.4, 1% FBS, 2 mM EDTA).
Starting from this point of the protocol all steps are performed on ice. 20 μL of CD14+ micro-beads are added per 1.0*10^7 cells, the tube is mixed and incubated for 15 min in the fridge at 4° C. Cell suspension volume is adjusted to total volume of 100 mL using Miltenyi buffer, mixed gently and subsequently centrifuged for 10 min at 300×g. Supernatant is discarded and cell pellet is resuspended in 12 mL of Miltenyi buffer.
Four LS columns are placed in the MACS Separator (magnet) from Miltenyi Biotec, and are prewet by rinsing with 3 mL of MACS buffer per column. Three mL of cell suspension is added onto the column (max 1*10^8 of labelled cells/column), and columns are subsequently washed 3 times with 3 mL of Miltenyi buffer.
The columns are removed from the magnets, and 5 mL of Miltenyi buffer are added to the column to flush out the CD14+ fraction by pushing the plunger into the column. The flushed fractions are collected in a fresh 50 mL Falcon and volume is adjusted to 30 mL using Miltenyi buffer, cells are centrifuged for 10 min at 300×g. The obtained cell pellet is resuspended in 10 mL RPMI w/o FBS, and cell density is determined using a hematologic analyser (Sysmex XS-500i). 100 000 cells are seeded in 80 μL per well of a 96-well plate in RPMI 1640 medium supplemented with 10% FBS, 1% P/S.
A compound dilution plate is made in 100% DMSO by 3-fold dilution of 10 mM stock solution. An intermediate dilution plate (10× final concentration) is made by diluting the compound dilution plate 50-fold in RPMI medium.
10 μL of the 10× final concentration compound is added to the cells and incubated for 1 h at 37° C. before addition of trigger. […]

In experiment [2] the test system is LPS triggered IL-10 secretion in monocytes. Put plainly: Monocytes assay: LPS-triggered IL-10 (ELISA). Particulars: LPS 200 ng/mL, supernatant after 4 h, maximal fold change vs LPS only. The class given is cell-based, human. Here is the method: as §1
as §2, with “XS-500i). […]” for “XS-500i).”
(§3) The columns are removed from the magnets, and 5 mL of Miltenyi buffer are added to the column to flush out the CD14+ fraction by pushing the plunger into the column. […] The obtained cell pellet is resuspended in 10 mL RPMI w/o FBS, and cell density is determined using a hematologic analyser (Sysmex XS-500i). […]

Experiment [3] has as its system LPS triggered IL-10 secretion in monocyte-derived macrophages (MdM). Kind of experiment: MdM assay: LPS-triggered IL-10 (ELISA). The experiment is classed as cell-based, human. Particulars: LPS 200 ng/mL, maximal fold change vs LPS only. Here is the method:
SIK inhibition inhibits TNFα and increases IL-10 release in LPS triggered monocyte-derived macrophages (MdM) and dendritic cells (MdDCs) (Clark et al. 2012; Sundberg et al. 2014; Ozanne et al. 2015). This assay evaluates illustrative compounds of the invention for their inhibition of LPS-induced TNFα and LPS triggered IL-10 secretion in monocyte-derived macrophages.
as §2, with “XS-500i). […]” for “XS-500i).”
as §3

Consider `COc1cc(-c2cnn3cc(OC(C)(C)CO)ccc23)cc(OC(F)F)c1C(=O)N[C@@H]1C[C@@H]1F` [Cpd 2, 2-(difluoromethoxy)-N-[(1R,2S)-2-fluorocyclopropyl]-4-[6-(2-hydroxy-1,1-dimethyl-ethoxy)pyrazolo[1,5-a]pyridin-3-yl]-6-methoxy-benzamide], for which the EC50 in experiment [1] lay within 100 to 1000 nM. In experiment [2], the “IL-10 FCmax median” value was “+ (≤1.5)”.

In experiment [1], `COc1cc(-c2cnn3cc(OC(C)(C)CN4CCOCC4)ccc23)cc(OC(F)F)c1C(=O)N[C@@H]1C[C@@H]1F` [Cpd 3, 2-(difluoromethoxy)-4-[6-(1,1-dimethyl-2-morpholino-ethoxy)pyrazolo[1,5-a]pyridin-3-yl]-N-[(1R,2S)-2-fluorocyclopropyl]-6-methoxy-benzamide] returned an EC50 of 100 to 1000 nM.

`COc1cc(-c2cnn3cc(OCCN4CCOCC4)ccc23)cc2c1C(=O)N(CC(F)(F)F)CC2` [Cpd 1, 8-methoxy-6-[6-(2-morpholinoethoxy)pyrazolo[1,5-a]pyridin-3-yl]-2-(2,2,2-trifluoroethyl)-3,4-dihydroisoquinolin-1-one] came in with an EC50 in experiment [1] of 100 to 1000 nM. Further, the “IL-10 FCmax median” value is “+++ (>4.5)” in experiment [2] and “++ (>1.5-4.5)” in experiment [3].

For the origin of these results see patent US12606554B2, “Compounds and pharmaceutical compositions thereof for the treatment of diseases” (ONCO3R Therapeutics BV, priority 2019, dated 2026).
